From publication PMC5836741 (Journal of medicinal chemistry, 2017)

What was measured:
M2R [1] = target: T1, M2R (Homo sapiens, UniProt P08172); test: Whole cell radioligand binding, CHO cells, M2R; conditions: M2 vs M1
T1 sequence (P08172 1-466): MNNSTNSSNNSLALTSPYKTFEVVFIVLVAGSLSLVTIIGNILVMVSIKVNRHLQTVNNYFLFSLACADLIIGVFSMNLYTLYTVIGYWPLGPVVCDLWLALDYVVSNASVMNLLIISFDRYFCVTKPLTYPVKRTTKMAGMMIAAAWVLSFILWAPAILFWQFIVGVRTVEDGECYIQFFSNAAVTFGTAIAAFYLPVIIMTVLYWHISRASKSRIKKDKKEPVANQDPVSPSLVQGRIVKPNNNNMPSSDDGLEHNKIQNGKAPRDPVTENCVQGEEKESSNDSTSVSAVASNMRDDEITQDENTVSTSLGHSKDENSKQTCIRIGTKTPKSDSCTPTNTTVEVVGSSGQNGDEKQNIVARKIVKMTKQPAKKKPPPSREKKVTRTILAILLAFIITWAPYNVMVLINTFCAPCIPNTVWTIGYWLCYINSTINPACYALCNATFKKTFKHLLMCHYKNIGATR

M2R [2] = target: T1, M2R; test: β-Arrestin recruitment assay, HEK cells, M2-TEV-tTA; type: cell-based; conditions: versus acetylcholine as reference, against the cAMP assay
hM3 mAChR = hM3 mAChR (Homo sapiens, UniProt P20309); test: IP-One accumulation assay, CHO cells, M3R; type: cell-based; conditions: read-out: IP accumulation Emax M3R
hM3 mAChR, sequence (P20309 whole entry): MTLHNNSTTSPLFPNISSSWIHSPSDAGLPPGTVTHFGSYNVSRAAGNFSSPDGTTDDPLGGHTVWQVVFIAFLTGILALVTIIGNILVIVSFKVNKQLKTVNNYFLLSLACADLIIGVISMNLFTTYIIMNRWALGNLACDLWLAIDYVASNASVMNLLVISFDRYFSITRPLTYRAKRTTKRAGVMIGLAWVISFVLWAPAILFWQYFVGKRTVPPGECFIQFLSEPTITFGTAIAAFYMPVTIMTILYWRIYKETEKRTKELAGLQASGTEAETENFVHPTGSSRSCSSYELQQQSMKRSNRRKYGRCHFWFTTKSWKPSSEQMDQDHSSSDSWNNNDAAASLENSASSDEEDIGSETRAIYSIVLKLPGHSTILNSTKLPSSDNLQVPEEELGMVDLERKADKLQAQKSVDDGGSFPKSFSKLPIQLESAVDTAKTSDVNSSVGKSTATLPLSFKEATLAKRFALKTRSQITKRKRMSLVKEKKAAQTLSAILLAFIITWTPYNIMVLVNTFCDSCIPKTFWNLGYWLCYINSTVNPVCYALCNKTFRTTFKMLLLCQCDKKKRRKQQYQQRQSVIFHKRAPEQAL

M3R = M3R (Homo sapiens, UniProt P20309); test: ERK1/2 phosphorylation; conditions: CHO, read-out: ERK1/2 phosphorylation Emax M3R
M3R, sequence (P20309 whole entry): as above

Structure (SMILES)	selectivity over M1 receptor (M2R [1])	bias toward arrestin (M2R [2])	Emax (hM3 mAChR)	Emax (M3R)
C[N+](C)(C)CCc1ccc2c(c1)OCC2.O=C[O-] [Compound 28]	4 fold	20 fold		
CC(=O)OCC[N+](C)(C)C [acetylcholine]			100%	100%
